Results taken from patent US20100003711A1, “Methods to identify therapeutic agents” (THE SCRIPPS RESEARCH INSTITUTE, priority 2005, published 2010).

Assays:
THP-1 monocytes = test: Monocyte morphology changes (differentiation into macrophages); assay type: cell-based, human; settings: 12.5 or 25 μM, up to 7 days
Method: THP-1 monocytes in suspension were plated in 8-well chambered slides. […] Media containing appropriate treatment compounds was replaced after 4 days. After 4 days treatment, morphologic changes of the adherent cells were assessed by phase-contrast microscopy and photographed using an Olympus Microfire digital camera.

leukocyte cell lines = test: Cytotoxicity to leukocyte cell lines (similar procedures); assay type: cell-based
Method: Cytotoxicity assays. WI-L2 human B-lymphocyte line, HAAE-1 human abdominal aortic endothelial line, MH-S murine alveolar macrophage line, and J774A.1 murine tissue macrophage line were obtained from the ATCC. Human aortic endothelial cells (HAEC) and human vascular smooth muscle cells (VSMS) were obtained from Cambrex Bio Science. Jurkat E6-1T-lymphocytes were kindly provided by Dr. J. Kaye (The Scripps Research Institute). Cells were cultured in ATCC-recommended media with 10% fetal calf serum. Cells were incubated in a controlled atmosphere at 37° C., with 5 or 7% CO2. For lactate dehydrogenase (LDH) release assays, adherent cells were harvested either by addition of 0.05% trypsin/EDTA or by scraping. The cells obtained were seeded onto 96-well microtiter plates (25,000 cells/well) and allowed to recover for 24-48 h. Cells were washed gently and media replaced with fresh media containing 5% fetal calf serum. […] Cytotoxicity was then determined by measuring lactate dehydrogenase (LDH) release from cells in culture. […] 100% Cytotoxicity was defined as the maximum amount of LDH released by dead cells as shown by trypan blue exclusion, or the highest amount of LDH detected upon lysis of cells by 0.9% Triton X-100. The IC50 values were determined by comparison of the raw duplicate data for concentration versus cytotoxicity (%) to non-linear regression analysis (Hill plot) using Graphpad v3.0 software for Macintosh.

LDL / apoB-100 = LDL / apoB-100 (Homo sapiens, UniProt P04114); test: Circular dichroism of LDL secondary structure; settings: LDL 100 μg/ml with 10 μM compound, PBS pH 7.4, 37° C., up to 48 h; normal LDL ~40±2%
LDL / apoB-100, sequence (P04114 28-4563): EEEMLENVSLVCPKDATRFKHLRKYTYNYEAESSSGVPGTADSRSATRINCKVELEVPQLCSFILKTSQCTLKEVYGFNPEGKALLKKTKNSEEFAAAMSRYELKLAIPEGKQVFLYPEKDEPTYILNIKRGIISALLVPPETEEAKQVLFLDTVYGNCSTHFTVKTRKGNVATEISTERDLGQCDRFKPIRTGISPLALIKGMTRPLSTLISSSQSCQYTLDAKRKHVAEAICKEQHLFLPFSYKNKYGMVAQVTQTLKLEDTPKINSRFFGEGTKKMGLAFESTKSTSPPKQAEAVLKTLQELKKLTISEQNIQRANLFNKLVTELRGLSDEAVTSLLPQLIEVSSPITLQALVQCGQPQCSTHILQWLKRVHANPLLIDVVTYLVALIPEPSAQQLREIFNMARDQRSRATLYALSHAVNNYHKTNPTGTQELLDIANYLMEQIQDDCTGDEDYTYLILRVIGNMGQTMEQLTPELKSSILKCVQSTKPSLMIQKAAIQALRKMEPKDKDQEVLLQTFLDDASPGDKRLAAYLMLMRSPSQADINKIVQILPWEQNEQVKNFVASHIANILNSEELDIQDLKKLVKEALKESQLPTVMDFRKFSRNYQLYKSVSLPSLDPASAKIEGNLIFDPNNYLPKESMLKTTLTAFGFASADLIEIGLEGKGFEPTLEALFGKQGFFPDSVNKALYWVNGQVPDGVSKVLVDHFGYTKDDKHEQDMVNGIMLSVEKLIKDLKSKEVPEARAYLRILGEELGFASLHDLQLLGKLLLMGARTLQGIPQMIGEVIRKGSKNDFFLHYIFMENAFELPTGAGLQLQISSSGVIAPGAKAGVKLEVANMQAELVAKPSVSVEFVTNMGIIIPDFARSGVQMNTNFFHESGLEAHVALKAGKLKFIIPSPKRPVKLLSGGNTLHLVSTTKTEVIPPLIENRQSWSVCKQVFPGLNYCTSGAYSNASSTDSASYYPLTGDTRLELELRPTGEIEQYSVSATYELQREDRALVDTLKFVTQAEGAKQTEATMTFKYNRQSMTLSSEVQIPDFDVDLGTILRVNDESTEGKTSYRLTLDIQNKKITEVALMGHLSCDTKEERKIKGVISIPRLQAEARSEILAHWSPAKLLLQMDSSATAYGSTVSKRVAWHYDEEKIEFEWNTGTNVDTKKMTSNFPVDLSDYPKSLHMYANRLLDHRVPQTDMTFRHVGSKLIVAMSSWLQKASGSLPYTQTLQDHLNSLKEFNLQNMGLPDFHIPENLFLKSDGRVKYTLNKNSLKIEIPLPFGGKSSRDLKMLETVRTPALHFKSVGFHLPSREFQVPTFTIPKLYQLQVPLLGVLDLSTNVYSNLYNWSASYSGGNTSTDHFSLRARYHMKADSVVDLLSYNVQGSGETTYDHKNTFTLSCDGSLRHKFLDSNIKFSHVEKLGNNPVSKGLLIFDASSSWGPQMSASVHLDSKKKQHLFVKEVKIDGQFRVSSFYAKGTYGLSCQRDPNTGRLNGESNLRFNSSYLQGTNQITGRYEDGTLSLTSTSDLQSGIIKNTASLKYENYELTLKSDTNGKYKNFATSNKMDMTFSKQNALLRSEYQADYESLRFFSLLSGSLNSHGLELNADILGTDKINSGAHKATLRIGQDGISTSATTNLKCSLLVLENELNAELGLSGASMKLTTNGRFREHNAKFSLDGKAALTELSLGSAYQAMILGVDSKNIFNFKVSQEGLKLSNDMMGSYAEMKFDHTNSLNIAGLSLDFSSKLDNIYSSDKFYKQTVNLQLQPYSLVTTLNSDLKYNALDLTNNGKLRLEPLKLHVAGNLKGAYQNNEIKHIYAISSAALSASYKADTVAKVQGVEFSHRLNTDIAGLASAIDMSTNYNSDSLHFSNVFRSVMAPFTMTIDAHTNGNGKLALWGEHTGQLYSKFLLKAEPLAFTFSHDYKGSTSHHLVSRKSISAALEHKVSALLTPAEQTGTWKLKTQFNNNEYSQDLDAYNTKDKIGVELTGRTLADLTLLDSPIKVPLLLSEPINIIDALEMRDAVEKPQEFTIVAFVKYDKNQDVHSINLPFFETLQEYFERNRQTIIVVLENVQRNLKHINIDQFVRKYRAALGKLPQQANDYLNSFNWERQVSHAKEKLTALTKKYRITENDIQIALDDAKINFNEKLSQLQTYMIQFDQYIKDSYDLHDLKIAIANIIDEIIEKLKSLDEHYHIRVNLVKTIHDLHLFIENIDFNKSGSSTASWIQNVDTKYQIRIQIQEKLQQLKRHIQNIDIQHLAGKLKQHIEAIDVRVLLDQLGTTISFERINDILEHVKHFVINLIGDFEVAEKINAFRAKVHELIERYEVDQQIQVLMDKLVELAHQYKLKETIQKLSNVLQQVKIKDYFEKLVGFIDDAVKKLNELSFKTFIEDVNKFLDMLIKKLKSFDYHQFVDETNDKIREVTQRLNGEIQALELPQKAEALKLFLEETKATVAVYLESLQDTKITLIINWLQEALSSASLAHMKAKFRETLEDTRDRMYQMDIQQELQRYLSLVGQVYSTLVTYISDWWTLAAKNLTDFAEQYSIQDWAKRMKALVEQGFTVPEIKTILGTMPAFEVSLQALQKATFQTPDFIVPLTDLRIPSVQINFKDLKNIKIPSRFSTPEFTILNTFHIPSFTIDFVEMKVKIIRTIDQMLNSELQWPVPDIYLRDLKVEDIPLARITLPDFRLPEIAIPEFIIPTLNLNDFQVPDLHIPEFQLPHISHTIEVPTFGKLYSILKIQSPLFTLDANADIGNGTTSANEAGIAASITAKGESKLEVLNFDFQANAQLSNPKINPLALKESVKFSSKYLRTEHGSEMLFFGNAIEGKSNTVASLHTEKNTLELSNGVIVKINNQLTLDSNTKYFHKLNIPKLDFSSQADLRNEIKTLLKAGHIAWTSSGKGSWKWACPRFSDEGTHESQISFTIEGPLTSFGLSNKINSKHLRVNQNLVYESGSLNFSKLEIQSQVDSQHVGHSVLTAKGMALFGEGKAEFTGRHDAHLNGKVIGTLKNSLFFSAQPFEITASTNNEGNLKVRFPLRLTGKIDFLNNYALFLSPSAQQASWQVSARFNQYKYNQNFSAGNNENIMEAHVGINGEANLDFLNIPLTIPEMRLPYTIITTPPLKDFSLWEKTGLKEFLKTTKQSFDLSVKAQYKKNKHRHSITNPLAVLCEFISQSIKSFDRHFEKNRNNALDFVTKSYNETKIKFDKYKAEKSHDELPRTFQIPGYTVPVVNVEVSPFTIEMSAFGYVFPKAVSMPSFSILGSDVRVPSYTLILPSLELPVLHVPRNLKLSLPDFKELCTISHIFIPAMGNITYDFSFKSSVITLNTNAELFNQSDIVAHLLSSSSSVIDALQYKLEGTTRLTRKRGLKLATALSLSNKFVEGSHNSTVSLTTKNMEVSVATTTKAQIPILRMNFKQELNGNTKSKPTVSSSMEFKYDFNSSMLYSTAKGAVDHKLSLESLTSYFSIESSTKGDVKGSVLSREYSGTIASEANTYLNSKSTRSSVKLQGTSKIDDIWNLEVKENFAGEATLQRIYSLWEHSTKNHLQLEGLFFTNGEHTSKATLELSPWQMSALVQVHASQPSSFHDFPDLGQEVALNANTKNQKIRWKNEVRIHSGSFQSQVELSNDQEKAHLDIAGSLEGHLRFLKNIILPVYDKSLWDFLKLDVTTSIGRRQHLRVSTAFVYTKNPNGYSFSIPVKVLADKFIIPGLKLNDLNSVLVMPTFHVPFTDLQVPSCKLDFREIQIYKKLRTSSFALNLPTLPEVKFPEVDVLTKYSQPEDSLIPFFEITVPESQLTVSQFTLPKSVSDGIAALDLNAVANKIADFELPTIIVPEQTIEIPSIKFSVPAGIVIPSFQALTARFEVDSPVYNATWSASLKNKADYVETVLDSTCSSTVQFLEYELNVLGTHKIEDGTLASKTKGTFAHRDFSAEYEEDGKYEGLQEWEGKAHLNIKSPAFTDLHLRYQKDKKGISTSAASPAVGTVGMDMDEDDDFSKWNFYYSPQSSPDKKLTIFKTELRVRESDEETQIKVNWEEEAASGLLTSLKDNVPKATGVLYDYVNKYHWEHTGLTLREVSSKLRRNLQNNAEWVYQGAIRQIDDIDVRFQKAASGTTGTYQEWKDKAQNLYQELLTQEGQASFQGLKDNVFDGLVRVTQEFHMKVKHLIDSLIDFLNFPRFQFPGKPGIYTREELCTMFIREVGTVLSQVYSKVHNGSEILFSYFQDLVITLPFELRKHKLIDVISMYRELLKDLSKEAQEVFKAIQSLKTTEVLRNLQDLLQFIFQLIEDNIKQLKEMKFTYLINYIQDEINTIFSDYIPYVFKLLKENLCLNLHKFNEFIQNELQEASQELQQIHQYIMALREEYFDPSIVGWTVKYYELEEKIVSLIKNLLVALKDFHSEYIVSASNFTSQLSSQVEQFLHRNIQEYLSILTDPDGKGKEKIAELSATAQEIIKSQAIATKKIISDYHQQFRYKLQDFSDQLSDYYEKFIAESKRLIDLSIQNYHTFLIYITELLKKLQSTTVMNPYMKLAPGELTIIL
Method: Spectra were recorded in the peptidic range (200-260 nm). To increase the signal-to-noise ratio, multiple spectra (three) were averaged for each measurement. The deconvolution of the molar elipticity spectra for each measurement was performed using the CDPro suite of software (by Narasimha Sreerama from Colorado State University) on a Dell PC.

E-selectin (CD62E) = test: Endothelial adhesion molecule expression by ELISA, E-selectin; assay type: cell-based, human; settings: HAAE-1, not complexed with LDL
Method: (§1) Endothelial cell surface adhesion molecule expression was measured by ELISA, using anti-human CD54 (ICAM-1), CD106 (VCAM-1) and CD62E (E-Selectin) antibodies (Leinco Technologies, Inc., St. Louis, Mo.). The ELISA method was modified from previously described procedures.
(§2) Cells were then incubated with antibodies to VCAM-1, E-selectin, or ICAM-1 diluted 1:400 in PBS containing 5% FCS at 37° C. for 30 min. Wells were washed two times with PBS, then incubated with horseradish peroxidase (HRP)-conjugated goat anti-mouse IgG (Southern Biotechnology Associates, Birmingham, Ala., USA) in PBS/5% FCS at 37° C. for 30 min. The wells were washed four times with PBS, then incubated with H2O2/3,3′,5,5′-tetramethyl-benzidine peroxidase substrate (Pierce Chemical, Rockford, Ill., USA) for 30 min in the dark. The reaction was stopped by adding 25 μl of 8 N H2SO4, and the plates read on a microplate reader, blanking on wells stained with only secondary antibody. Each assay was performed in triplicate and the data are reported as the mean±SEM as a percentage of the expression level of the vehicle. To study the effect of cholesterol ozonation product 5a concentration (5-50 μM) on E-selectin expression, the assay was performed in an identical fashion as described above, with each point being the mean±SEM of at least duplicate measurements.

U-937 monocytes cells = test: Monocyte adhesion to endothelial cell monolayers by fluorescence spectroscopy; assay type: cell-based; settings: alone or in complex with LDL
VCAM-1 (CD106) = test: Endothelial adhesion molecule expression by ELISA, VCAM-1; assay type: cell-based, human; settings: HAAE-1, not complexed with LDL
Method: as §1, §2

ICAM-1 (CD54) = test: Endothelial adhesion molecule expression by ELISA, ICAM-1; assay type: cell-based, human; settings: HAAE-1, not complexed with LDL
Method: as §1, §2

[1] = Decrease of extractable 5a in stored plasma; assay type: in vitro ADME; settings: stored human plasma, preliminary investigations
Method: Plasma samples were obtained from patients (n=8) who were scheduled to undergo carotid endarterectomy within 24 h. […] Control plasma samples were obtained from random patients (n=15) attending a general medical clinic and were analyzed 7 days after collection. In a typical procedure, plasma in EDTA (1 ml) was washed with dichloromethane (DCM, 3×1 mL). The combined organic fractions were evaporated in vacuo. The residue was dissolved in methanol (0.9 mL) and a solution of 2,4-dinitrophenyl hydrazine (100 μL, 0.01 M, Lancaster) and 1N HCl in ethanol was added. Nitrogen was bubbled through the solution for 5 min and then the solution was stirred for 2 h. The resultant solution was filtered through a 0.22 μm filter and the filtrate was analyzed by the HPLC assay vide supra.

[2] = test system: Class A scavenger receptor (SR-A); test: Scavenger receptor expression by flow cytometry, SR-A; assay type: cell-based, murine; settings: cultured macrophages, compound in the absence of LDL
Method: Cell surface CD36 and SR-A were measured by flow cytometry using CD36 (BD Biosciences Pharmingen, San Diego, Calif.) and CD204 (Serotec, Oxford, UK) specific monoclonal antibodies. See Liao et al. (2000) Arterioscler. Thromb. Vasc. Biol. 20: 1968-75; Hu et al. (1996) Blood 87: 2020-28. Murine macrophage J774A.1 cells were serum-starved overnight in media with 0.5% BSA. Cells (1×10^6) treated with cholesterol ozonation products or cholesterol ozonation product complexed with LDL for specified times were then washed twice with PBS. […] Expression of either CD36 or SR-A was determined with CD36 (BD Biosciences Pharmingen, San Diego, Calif.) and CD204 (Serotec, Oxford, U.K.) specific monoclonal antibodies, respectively. After washing off the primary antibody, secondary antibodies were added, cells were washed again, then analyzed on a FACS calibur 2 (Becton Dickinson, Sparks, Md.) flow cytometer and analyzed by CellQuant software. Results were expressed as mean fluorescence intensity±standard error of the mean (SEM) of at least duplicate determinations. Significance was determined using a student two-tail t test, with (*) indicating p<0.05, and (**) indicating p<0.01 versus the control.

J774.1 macrophages = test: Lipid-loading assay (foam cell formation); assay type: cell-based, murine; settings: LDL 100 μg/mL with 4a or 5a (20 μM), 72 h, unactivated J774.1 macrophages
Method: Lipid-loading assay (foam cell formation). J774.1 macrophages were incubated in ATCC-recommended media containing 10% fetal bovine serum under a controlled atmosphere of 5 or 7% CO2 at 37° C., in 8-well chamber slides. […] At termination, cells were washed twice with PBS (pH 7.4). The cells were then fixed with 6% (v/v) paraformaldehyde in PBS for 30 minutes, rinsed with propylene glycol for 2 minutes and lipids were stained with 5 mg/ml Oil Red 0 for 8 minutes. The cells were counterstained with Harris' hematoxylin for 45 seconds, and background staining was removed with 6% paraformaldehyde followed by washing once in PBS and once in tap water. Cover slips were mounted onto the glass slides using glycerol and the slide preparations were examined by light microscopy. The number of lipid-laden cells was scored out of a total of at least 100 cells counted in a single field in each slide, and expressed as a percentage of total cells. Photographs were taken at 100× magnification.

CD36 = test: Scavenger receptor expression by flow cytometry, CD36; assay type: cell-based, murine
Method: Cell surface CD36 and SR-A were measured by flow cytometry using CD36 (BD Biosciences Pharmingen, San Diego, Calif.) and CD204 (Serotec, Oxford, UK) specific monoclonal antibodies. See Liao et al. (2000) Arterioscler. Thromb. Vasc. Biol. 20: 1968-75; Hu et al. (1996) Blood 87: 2020-28. Murine macrophage J774A.1 cells were serum-starved overnight in media with 0.5% BSA. Cells (1×10^6) treated with cholesterol ozonation products or cholesterol ozonation product complexed with LDL for specified times were then washed twice with PBS. After harvesting the cells by scraping, they were fixed with 6% paraformaldehyde for 20 min; Cells were then resuspended in PBS containing 2% heat-inactivated FCS, 0.05% NaN3 and appropriate primary antibody, antibody conjugate or isotype control (1:100 dilution) and incubated on ice for 30 min. Expression of either CD36 or SR-A was determined with CD36 (BD Biosciences Pharmingen, San Diego, Calif.) and CD204 (Serotec, Oxford, U.K.) specific monoclonal antibodies, respectively. After washing off the primary antibody, secondary antibodies were added, cells were washed again, then analyzed on a FACS calibur 2 (Becton Dickinson, Sparks, Md.) flow cytometer and analyzed by CellQuant software. Results were expressed as mean fluorescence intensity±standard error of the mean (SEM) of at least duplicate determinations. Significance was determined using a student two-tail t test, with (*) indicating p<0.05, and (**) indicating p<0.01 versus the control.

neuronal cell lines = test: Cytotoxicity towards neuronal cell lines (similar procedures); assay type: cell-based
[3] = test system: murine macrophage J774A.1; test: Modified Boyden chamber migration (chemotaxis) assay; assay type: cell-based
Method: Chemotaxis and invasion assays were performed using a modified Boyden chamber migration assay. Zwirner et al. (1998) Eur. J. Immunol. 28: 1570-77; Wilkinson (1988) Methods Enzymol. 162: 38-50. Assays were set up on MultiScreen-MIC plates (Millipore, Billerica, Mass., USA) with polyvinylpyrrolidone-free polycarbonate membranes (5 μm pore size). Cells (murine macrophage J774A.1) were washed and resuspended in serum-free DMEM containing 0.2% BSA at 1×10^6 cells/ml. Fifty microliters of cells were added to the upper wells and 150 μl of chemoattractant in DMEM/0.2% BSA were added to the lower wells of the microchamber. Incubation time was for 4 h at 37° C. in an 8% CO2 atmosphere. After swiping cells off the upper side of the membrane, cells on the lower side were visualized by either staining and phase contrast microscopy, or fluorescence. Cells that had adhered to the membrane were stained using a DiffQuik staining kit (Dade Behring, Newark, Del.). Each experiment was performed in triplicate and the numbers of migrating cells were counted in five fields at ×200. Cells harvested with PBS-EDTA for fluorescent labeling were washed two times with PBS, then resuspended in serum-free medium containing calcein AM (5 μM). Cells were incubated for 30 min (37° C., 5% CO2) with gentle intermittent mixing. Calcein-labeled cells were washed twice, and calcein fluorescence ([…]) was measured using a SPECTRAmax™ GEMINI dual-scanning microplate spectrofluorometer. Fluorescence measurements were compared to a standard curve, generated by dilution of cells in PBS/BSA in 100 μl, dispensed into 96-well plates. Fluorescence was quantified as described above.

For `CC(C)CCC[C@@H](C)[C@H]1CC[C@H]2[C@@H]3C(=O)C=C4C[C@@H](O)CC[C@]4(C)[C@H]3CC[C@]12C` [7-KC, 7-ketocholesterol, reference compound], which “THP-1 monocyte differentiation into macrophages (adherence, morphology)” value (THP-1 monocytes) is on record?
The value was “began to adhere after 4 days”.

Which “cytotoxicity to leukocyte cell lines” value (leukocyte cell lines) does the source give for `CC(C)CCC[C@@H](C)[C@H]1CCC2C3C(CC[C@@]21C)[C@@]1(C)CCC=C[C@@]1(O)[C@@H]3CO` (stereo partly shown) [7c] here?
The value was “cytotoxic”.

With `CC(C)CCC[C@@H](C)[C@H]1CCC2C(CC=O)C([C@@]3(C)CCC=CC3=O)CC[C@@]21C` (stereo partly shown) [6a, 5-Oxo-5,6-secocholest-3-en-6-al] as the compound, how does the “cytotoxicity to leukocyte cell lines” value (leukocyte cell lines) read?
The value was “cytotoxic”.

Which “cytotoxicity to leukocyte cell lines” value (leukocyte cell lines) does the source give for `CC(C)CCC[C@@H](C)[C@H]1CCC2C3C(C=O)=C4C=CCC[C@]4(C)C3CC[C@@]21C` (stereo partly shown) [12a, B-norcholest-3,5-diene-6-carboxaldehyde] here?
The value was “cytotoxic”.

Which “cytotoxicity to leukocyte cell lines” value (leukocyte cell lines) does the source give for `CC(C)CCC[C@@H](C)[C@H]1CCC2[C@H](CC=O)C([C@@]3(C)CCCCC(=O)O3)CC[C@@]21C` (stereo partly shown) [11a] here?
The value was “cytotoxic”.

With `CC(C)CCC[C@@H](C)[C@H]1CCC2C3C(CC[C@@]21C)[C@@]1(C)CC[C@H](O)C[C@@]1(O)[C@@H]3C=O` (stereo partly drawn) [5a, 3β-Hydroxy-5β-hydroxy-B-norcholestane-6βcarboxaldehyde] as the compound, how does the “a helical structure of LDL” value (LDL / apoB-100) read?
The value was roughly 20±2%.

What about the “selectin (E-selectin) expression” value (E-selectin (CD62E)) of the same compound?
The value was “no effects”.

And the “adhesion of U-937 monocytes to endothelial cell monolayers, above that of LDL alone” value (U-937 monocytes cells)?
Its value is “neither ozonolysis product 4a nor 5a, alone or in complex with LDL, nor CuOx-LDL significantly increased adhesion”.

What about the “integrin expression (VCAM-1)” value (VCAM-1 (CD106)) of the same compound?
The value was “no effects”.

What about the “integrin expression (ICAM-1)” value (ICAM-1 (CD54)) of the same compound?
The value was “no effects”.

What about the “decrease of the amount of 5a that can be extracted from plasma” value [1] of the same compound?
Its value is “about 5 % per day”.

What about the SR-A expression [2] of the same compound?
The SR-A expression was “did not increase expression of either receptor”.

What about the “lipid-loading of macrophages / foam cell formation” value (J774.1 macrophages) of the same compound?
The value was “began lipid-loading and foam cells began to appear”.

What about the CD36 expression (CD36; J774A.1, 25 μM compound complexed with LDL (100 μg/ml protein), 6 h) of the same compound?
Its CD36 expression is “little or no effect”.

What about the CD36 expression (CD36; cultured macrophages, compound in the absence of LDL) of the same compound?
The CD36 expression was “did not increase expression of either receptor”.

What about the “cytotoxicity towards neuronal cell lines” value (neuronal cell lines) of the same compound?
Its value is “cytotoxic”.

And the “THP-1 monocyte differentiation into macrophages (adherence, morphology)” value (THP-1 monocytes)?
Its value is “displayed hypertrophy, developed cytoplasmic vacuoles, and formed extended processes, all characteristic of mature macrophages”.

And the “recruitment (migration) of macrophages” value ([3]; 0-25 μM, 4 h, P<0.001)?
The value was “dose-dependent recruitment of macrophages”.

What about the migration of macrophages ([3]; compound co-incubated with BSA) of the same compound?
Its migration of macrophages is “macrophage migration still occurs”.

And the migration of macrophages ([3]; compound complexed with native LDL (100 μg/ml))?
The migration of macrophages was “no significant migration”.

For `CC(C)CCC[C@@H](C)[C@H]1CCC2[C@H](CC(=O)O)C([C@@]3(C)CC[C@H](O)CC3=O)CC[C@@]21C` (stereo partly shown) [10a], which “cytotoxicity to leukocyte cell lines” value (leukocyte cell lines) is on record?
The value was “cytotoxic”.

Which “cytotoxicity to leukocyte cell lines” value (leukocyte cell lines) does the source give for `CC(C)CCC[C@@H](C)[C@H]1CCC2C3C(CC[C@@]21C)[C@@]1(C)CCC=C[C@@]1(O)[C@@H]3C=O` (stereo partly drawn) [7a, 5β-Hydroxy-B-norcholest-3-ene-6β-carboxaldehyde] here?
The value was “cytotoxic”.
